Measured values: ChEMBL document CHEMBL4414548 (J Med Chem, 2019)
One block for each molecule: values may come before it. Calls of active or inactive are those of the source. The calls are words filed in the database; no cut-off is given here.

Columns and labels:
[1] = AUClast in Balb/c mouse at 10 mg/kg, po; type: ADME, organism-based; design: dose 10 mg/kg, time 0 - last, route oral; conditions: in vivo
[2] = target: T1, Non-receptor tyrosine-protein kinase TYK2 (Homo sapiens, UniProt P29597); test: Inhibition of fluorescein-labeled kinase tracer binding to His-TVMV-fused TYK2 JH2 domain (575 to 869 residues) (unknown origin) measured after 90 mins by HTRF assay
[3] = target: T1, Non-receptor tyrosine-protein kinase TYK2; test: Inhibition of TYK2 JH1 domain (unknown origin)
[4] = target: Tyrosine-protein kinase JAK1 (Homo sapiens, UniProt P23458); test: Inhibition of JAK1 JH1 domain (unknown origin)
[5] = target: Tyrosine-protein kinase JAK2 (Homo sapiens, UniProt O60674); test: Inhibition of JAK2 JH1 domain (unknown origin)
[6] = target: JAK2/TYK2 (Homo sapiens, UniProt O60674+P29597); test: Inhibition of TYK2/JAK2 in IL23-stimulated human Kit225 cells by steady-glo luciferase assay
[7] = target: JAK1/TYK2 (Homo sapiens, UniProt P23458+P29597); test: Inhibition of TYK2/JAK1 in IFNalpha-stimulated human Kit225 cells by steady-glo luciferase assay
[8] = target: JAK3/JAK1 (Homo sapiens, UniProt P23458+P52333); test: Inhibition of JAK1/JAK3 (unknown origin) in IL-2 stimulated cells by cell based assay
[9] = target: JAK2/JAK1 (Homo sapiens, UniProt O60674+P23458); test: Inhibition of JAK1/JAK2 (unknown origin) in GM-CSF stimulated cells by cell based assay
[10] = target: T1, Non-receptor tyrosine-protein kinase TYK2; test: Inhibition of TYK2 JH2 domain in human whole blood assessed as inhibition of IFNalpha-induced STAT5 phosphorylation preincubated for 1 hr followed by IFNalpha stimulation and measured after 15 mins by fluorescence assay; type: tissue-based
[11] = Permeability across apical to basolateral side in human Caco2 cells; type: ADME, cell-based; conditions: Caco-2, read-out: permeability
[12] = Efflux ratio of permeability in human Caco2; type: ADME, cell-based; conditions: Caco-2
[13] = Metabolic stability in human liver microsomes assessed as parent compound remaining after 10 mins; type: ADME, Microsome; conditions: read-out: Stability
[14] = Metabolic stability in rat liver microsomes assessed as parent compound remaining after 10 mins; type: ADME, Microsome; conditions: read-out: Stability
[15] = Metabolic stability in mouse liver microsomes assessed as parent compound remaining after 10 mins; type: ADME, Microsome; conditions: read-out: Stability
[16] = target: Non-receptor tyrosine-protein kinase TYK2 (Mus musculus, UniProt Q9R117); test: Inhibition of TYK2 JH2 domain in mouse whole blood assessed as inhibition of IFNalpha-induced STAT1 phosphorylation preincubated for 1 hr followed by IFNalpha stimulation and measured after 15 mins by fluorescence assay; type: tissue-based
[17] = Drug concentration in Balb/c mouse at 3 mg/kg, iv after 0.05 hrs; type: ADME, organism-based; conditions: in vivo, read-out: Drug uptake
[18] = Drug concentration in Balb/c mouse at 3 mg/kg, iv after 0.5 hrs; type: ADME, organism-based; conditions: in vivo, read-out: Drug uptake
[19] = Drug concentration in Balb/c mouse at 3 mg/kg, iv after 1 hr; type: ADME, organism-based; conditions: in vivo, read-out: Drug uptake
[20] = Drug concentration in Balb/c mouse at 3 mg/kg, iv after 3 hrs; type: ADME, organism-based; conditions: in vivo, read-out: Drug uptake
[21] = Drug concentration in Balb/c mouse at 3 mg/kg, iv after 5 hrs; type: ADME, organism-based; conditions: in vivo, read-out: Drug uptake
[22] = Drug concentration in Balb/c mouse at 3 mg/kg, iv after 7 hrs; type: ADME, organism-based; conditions: in vivo, read-out: Drug uptake
[23] = AUClast in Balb/c mouse at 3 mg/kg, iv; type: ADME, organism-based; design: dose 3 mg/kg, route intravenous, time 0 - last; conditions: in vivo
[24] = Clearance in Balb/c mouse at 3 mg/kg, iv; type: ADME, organism-based; conditions: in vivo
[25] = Volume of distribution at steady state in Balb/c mouse at 3 mg/kg, iv; type: ADME, organism-based; conditions: in vivo, read-out: Vdss
[26] = Half life in Balb/c mouse at 3 mg/kg, iv; type: ADME, organism-based; conditions: in vivo
[27] = Drug concentration in Balb/c mouse at 10 mg/kg, po after 0.05 hrs; type: ADME, organism-based; conditions: in vivo, read-out: Drug uptake
[28] = Drug concentration in Balb/c mouse at 10 mg/kg, po after 0.5 hrs; type: ADME, organism-based; conditions: in vivo, read-out: Drug uptake
[29] = Drug concentration in Balb/c mouse at 10 mg/kg, po after 1 hr; type: ADME, organism-based; conditions: in vivo, read-out: Drug uptake
[30] = Drug concentration in Balb/c mouse at 10 mg/kg, po after 3 hrs; type: ADME, organism-based; conditions: in vivo, read-out: Drug uptake
[31] = Drug concentration in Balb/c mouse at 10 mg/kg, po after 5 hrs; type: ADME, organism-based; conditions: in vivo, read-out: Drug uptake
[32] = Drug concentration in Balb/c mouse at 10 mg/kg, po after 7 hrs; type: ADME, organism-based; conditions: in vivo, read-out: Drug uptake
[33] = Half life in human liver microsomes; type: ADME, Microsome
[34] = Half life in rat liver microsomes; type: ADME, Microsome
[35] = Half life in mouse liver microsomes; type: ADME, Microsome
[36] = Half life in cynomolgus monkey liver microsomes; type: ADME, Macaca fascicularis, Microsome
[37] = Half life in dog liver microsomes; type: ADME, Canis lupus familiaris, Microsome
[38] = Cmax in mouse at 10 mg/kg, po after 7 hrs; type: ADME, organism-based; design: dose 10 mg/kg, route oral; conditions: in vivo
[39] = AUClast in mouse at 10 mg/kg, po after 7 hrs; type: ADME, organism-based; design: time < 7 hr, dose 10 mg/kg, route oral; conditions: in vivo
[40] = Cmax in anesthetized rabbit at 1 to 10 mg/kg, iv; type: ADME, organism-based, Oryctolagus cuniculus; conditions: in vivo
[41] = Unbound drug level in rabbit at 1 to 10 mg/kg, iv; type: ADME, organism-based, Oryctolagus cuniculus; conditions: in vivo
[42] = Cmax in Balb/c mouse assessed as 6-((5-Fluoropyridin-2-yl)amino)-4-((2-(methylsulfonyl)phenyl)amino)nicotinamide level at 3 mg/kg, iv after 0.05 hrs; type: ADME, organism-based; design: dose 3 mg/kg, route intravenous; conditions: in vivo
[43] = Cmax in Balb/c mouse assessed as 6-((5-Fluoropyridin-2-yl)amino)-4-((2-(methylsulfonyl)phenyl)amino)nicotinamide level at 3 mg/kg, iv after 0.5 hrs; type: ADME, organism-based; design: dose 3 mg/kg, route intravenous; conditions: in vivo
[44] = Cmax in Balb/c mouse assessed as 6-((5-Fluoropyridin-2-yl)amino)-4-((2-(methylsulfonyl)phenyl)amino)nicotinamide level at 3 mg/kg, iv after 1 hr; type: ADME, organism-based; design: dose 3 mg/kg, route intravenous; conditions: in vivo
[45] = Cmax in Balb/c mouse assessed as 6-((5-Fluoropyridin-2-yl)amino)-4-((2-(methylsulfonyl)phenyl)amino)nicotinamide level at 3 mg/kg, iv after 3 hrs; type: ADME, organism-based; design: dose 3 mg/kg, route intravenous; conditions: in vivo
[46] = Cmax in Balb/c mouse assessed as 6-((5-Fluoropyridin-2-yl)amino)-4-((2-(methylsulfonyl)phenyl)amino)nicotinamide level at 3 mg/kg, iv after 5 hrs; type: ADME, organism-based; design: dose 3 mg/kg, route intravenous; conditions: in vivo
[47] = Cmax in Balb/c mouse assessed as 6-((5-Fluoropyridin-2-yl)amino)-4-((2-(methylsulfonyl)phenyl)amino)nicotinamide level at 3 mg/kg, iv after 7 hrs; type: ADME, organism-based; design: dose 3 mg/kg, route intravenous; conditions: in vivo
[48] = Cmax in Balb/c mouse assessed as 6-((5-Fluoropyridin-2-yl)amino)-4-((2-(methylsulfonyl)phenyl)amino)nicotinamide level at 10 mg/kg, po after 0.05 hrs; type: ADME, organism-based; design: dose 10 mg/kg, route oral; conditions: in vivo
[49] = Cmax in Balb/c mouse assessed as 6-((5-Fluoropyridin-2-yl)amino)-4-((2-(methylsulfonyl)phenyl)amino)nicotinamide level at 10 mg/kg, po after 0.5 hrs; type: ADME, organism-based; design: dose 10 mg/kg, route oral; conditions: in vivo
[50] = Cmax in Balb/c mouse assessed as 6-((5-Fluoropyridin-2-yl)amino)-4-((2-(methylsulfonyl)phenyl)amino)nicotinamide level at 10 mg/kg, po after 1 hr; type: ADME, organism-based; design: dose 10 mg/kg, route oral; conditions: in vivo
[51] = Cmax in Balb/c mouse assessed as 6-((5-Fluoropyridin-2-yl)amino)-4-((2-(methylsulfonyl)phenyl)amino)nicotinamide level at 10 mg/kg, po after 3 hrs; type: ADME, organism-based; design: dose 10 mg/kg, route oral; conditions: in vivo
[52] = Cmax in Balb/c mouse assessed as 6-((5-Fluoropyridin-2-yl)amino)-4-((2-(methylsulfonyl)phenyl)amino)nicotinamide level at 10 mg/kg, po after 5 hrs; type: ADME, organism-based; design: dose 10 mg/kg, route oral; conditions: in vivo
[53] = Cmax in Balb/c mouse assessed as 6-((5-Fluoropyridin-2-yl)amino)-4-((2-(methylsulfonyl)phenyl)amino)nicotinamide level at 10 mg/kg, po after 7 hrs; type: ADME, organism-based; design: dose 10 mg/kg, route oral; conditions: in vivo
[54] = system: Mus musculus; test: Antiinflammatory activity in po dosed B6 CB17 mouse model of CD40-induced colitis assessed as inhibition of body weight loss administered twice daily as nanosuspension; type: functional, organism-based; conditions: tested as the 2H-labelled form
[55] = system: Mus musculus; test: Antiinflammatory activity in B6 CB17 mouse model of CD40-induced colitis assessed as reduction in colitis severity at 250 mg/kg, po BID administered as nanosuspension; type: functional, organism-based; conditions: tested as the 2H-labelled form
[56] = system: Mus musculus; test: Inhibition of IL12/IL18-induced IFNgamma production in po dosed C57BL/6 mouse pretreated for 1 hr followed by IL12 stimulation and subsequent IL18 addition and measured after 3 hrs; type: functional, organism-based; conditions: tested as the 2H-labelled form
[57] = system: Mus musculus; test: Antiinflammatory activity in B6 CB17 mouse model of CD40-induced colitis assessed as reduction in inflammation at 250 mg/kg, po BID administered as nanosuspension; type: functional, organism-based; conditions: tested as the 2H-labelled form
[58] = system: Mus musculus; test: Antiinflammatory activity in B6 CB17 mouse model of CD40-induced colitis assessed as reduction in colitis damage at 250 mg/kg, po BID administered as nanosuspension; type: functional, organism-based; conditions: tested as the 2H-labelled form

T1 sequence (P29597 whole entry, the tested form may be a part): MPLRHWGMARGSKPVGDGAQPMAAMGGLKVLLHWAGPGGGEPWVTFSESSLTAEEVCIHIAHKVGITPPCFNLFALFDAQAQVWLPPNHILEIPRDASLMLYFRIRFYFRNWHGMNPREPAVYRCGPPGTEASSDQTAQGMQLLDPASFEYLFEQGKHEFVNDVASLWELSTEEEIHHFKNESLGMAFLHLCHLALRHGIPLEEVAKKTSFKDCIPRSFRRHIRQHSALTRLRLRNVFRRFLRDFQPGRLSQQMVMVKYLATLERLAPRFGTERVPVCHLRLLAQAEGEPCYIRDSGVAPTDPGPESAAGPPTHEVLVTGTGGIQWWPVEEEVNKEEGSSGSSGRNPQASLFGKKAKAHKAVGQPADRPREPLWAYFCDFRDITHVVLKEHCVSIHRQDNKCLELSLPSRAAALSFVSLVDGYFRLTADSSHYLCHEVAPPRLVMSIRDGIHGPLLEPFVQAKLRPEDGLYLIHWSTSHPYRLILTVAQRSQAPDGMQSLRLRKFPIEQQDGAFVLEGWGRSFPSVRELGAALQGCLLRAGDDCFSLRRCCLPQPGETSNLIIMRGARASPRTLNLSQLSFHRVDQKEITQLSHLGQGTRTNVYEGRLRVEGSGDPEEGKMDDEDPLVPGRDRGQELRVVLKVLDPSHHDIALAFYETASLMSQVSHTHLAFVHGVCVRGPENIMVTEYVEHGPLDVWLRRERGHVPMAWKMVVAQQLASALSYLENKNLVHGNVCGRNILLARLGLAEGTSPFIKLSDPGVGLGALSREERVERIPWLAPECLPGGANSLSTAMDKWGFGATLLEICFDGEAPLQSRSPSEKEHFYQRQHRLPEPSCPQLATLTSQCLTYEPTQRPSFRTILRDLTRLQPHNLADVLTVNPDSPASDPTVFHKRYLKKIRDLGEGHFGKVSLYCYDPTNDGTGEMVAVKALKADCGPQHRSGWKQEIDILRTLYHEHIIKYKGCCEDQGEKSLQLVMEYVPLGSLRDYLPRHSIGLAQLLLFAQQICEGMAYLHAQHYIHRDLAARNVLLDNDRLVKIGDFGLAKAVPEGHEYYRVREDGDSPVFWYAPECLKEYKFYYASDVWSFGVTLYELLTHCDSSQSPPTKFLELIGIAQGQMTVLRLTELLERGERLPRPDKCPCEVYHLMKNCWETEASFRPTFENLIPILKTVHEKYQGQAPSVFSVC
Chain of JAK2/JAK1 (P23458 whole entry, the tested form may be a part): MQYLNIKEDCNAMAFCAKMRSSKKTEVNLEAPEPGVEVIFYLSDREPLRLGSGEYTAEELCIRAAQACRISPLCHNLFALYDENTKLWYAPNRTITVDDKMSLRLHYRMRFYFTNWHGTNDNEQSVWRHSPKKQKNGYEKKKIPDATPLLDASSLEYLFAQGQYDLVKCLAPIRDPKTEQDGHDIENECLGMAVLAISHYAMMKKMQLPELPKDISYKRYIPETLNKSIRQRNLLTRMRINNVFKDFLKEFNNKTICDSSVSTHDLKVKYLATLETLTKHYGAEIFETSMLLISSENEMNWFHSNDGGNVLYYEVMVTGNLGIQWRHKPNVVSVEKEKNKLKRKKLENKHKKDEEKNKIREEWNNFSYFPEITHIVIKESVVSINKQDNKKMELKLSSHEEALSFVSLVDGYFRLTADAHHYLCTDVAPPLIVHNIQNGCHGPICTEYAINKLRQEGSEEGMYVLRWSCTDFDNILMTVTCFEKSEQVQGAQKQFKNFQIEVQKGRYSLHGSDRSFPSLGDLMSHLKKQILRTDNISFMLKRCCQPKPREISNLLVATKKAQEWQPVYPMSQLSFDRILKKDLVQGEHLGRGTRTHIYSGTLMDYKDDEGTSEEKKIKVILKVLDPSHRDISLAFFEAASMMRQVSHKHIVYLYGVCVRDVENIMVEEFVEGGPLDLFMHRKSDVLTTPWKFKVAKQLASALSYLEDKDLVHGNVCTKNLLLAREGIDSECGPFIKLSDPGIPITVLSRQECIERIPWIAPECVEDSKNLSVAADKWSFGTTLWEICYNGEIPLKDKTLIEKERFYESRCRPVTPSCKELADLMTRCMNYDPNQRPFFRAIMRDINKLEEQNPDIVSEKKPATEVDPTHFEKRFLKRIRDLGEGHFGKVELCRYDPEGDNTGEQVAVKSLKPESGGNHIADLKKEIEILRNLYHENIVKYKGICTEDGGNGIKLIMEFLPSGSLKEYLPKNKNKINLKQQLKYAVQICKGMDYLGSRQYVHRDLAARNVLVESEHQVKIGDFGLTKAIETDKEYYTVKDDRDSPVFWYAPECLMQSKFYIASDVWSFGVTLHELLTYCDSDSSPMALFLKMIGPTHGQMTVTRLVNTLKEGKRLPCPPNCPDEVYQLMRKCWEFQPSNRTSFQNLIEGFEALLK
Chain of JAK2/JAK1 (O60674 whole entry, the tested form may be a part): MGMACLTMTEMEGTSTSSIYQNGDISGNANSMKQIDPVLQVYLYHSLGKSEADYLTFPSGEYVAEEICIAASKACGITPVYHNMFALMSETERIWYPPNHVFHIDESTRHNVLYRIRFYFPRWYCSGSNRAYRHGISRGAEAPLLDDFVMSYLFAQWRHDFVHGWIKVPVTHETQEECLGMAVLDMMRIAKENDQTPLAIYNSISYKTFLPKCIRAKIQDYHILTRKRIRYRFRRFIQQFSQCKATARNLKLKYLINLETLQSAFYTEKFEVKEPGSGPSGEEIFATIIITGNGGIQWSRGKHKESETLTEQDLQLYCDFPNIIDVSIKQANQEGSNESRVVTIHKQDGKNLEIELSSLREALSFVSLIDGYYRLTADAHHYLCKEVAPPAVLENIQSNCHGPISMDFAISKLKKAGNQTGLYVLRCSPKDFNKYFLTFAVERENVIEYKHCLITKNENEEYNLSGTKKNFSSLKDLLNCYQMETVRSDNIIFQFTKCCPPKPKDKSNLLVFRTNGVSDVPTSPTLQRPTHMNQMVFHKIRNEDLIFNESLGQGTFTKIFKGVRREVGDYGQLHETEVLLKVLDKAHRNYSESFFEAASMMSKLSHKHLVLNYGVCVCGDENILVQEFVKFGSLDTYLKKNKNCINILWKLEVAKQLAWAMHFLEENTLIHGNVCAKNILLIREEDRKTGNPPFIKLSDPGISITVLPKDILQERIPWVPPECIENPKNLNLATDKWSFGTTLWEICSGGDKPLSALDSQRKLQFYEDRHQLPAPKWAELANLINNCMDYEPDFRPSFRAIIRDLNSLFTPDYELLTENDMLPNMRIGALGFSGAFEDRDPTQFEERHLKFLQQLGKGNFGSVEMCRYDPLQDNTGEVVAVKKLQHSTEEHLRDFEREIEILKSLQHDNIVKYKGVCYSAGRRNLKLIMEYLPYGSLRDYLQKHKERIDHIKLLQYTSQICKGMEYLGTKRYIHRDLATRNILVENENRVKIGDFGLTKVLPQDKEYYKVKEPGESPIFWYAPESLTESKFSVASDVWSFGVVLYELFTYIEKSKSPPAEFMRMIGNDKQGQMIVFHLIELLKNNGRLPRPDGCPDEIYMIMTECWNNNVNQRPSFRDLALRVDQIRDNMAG
Chain of JAK1/TYK2 (P23458 whole entry): as the sequence (P23458 whole entry, the tested form may be a part) above
Chain of JAK1/TYK2 (P29597 whole entry): as the sequence (P29597 whole entry, the tested form may be a part) above
Chain of Tyrosine-protein kinase JAK1 (P23458 whole entry, the tested form may be a part): as the sequence (P23458 whole entry, the tested form may be a part) above
Chain of JAK3/JAK1 (P52333 whole entry): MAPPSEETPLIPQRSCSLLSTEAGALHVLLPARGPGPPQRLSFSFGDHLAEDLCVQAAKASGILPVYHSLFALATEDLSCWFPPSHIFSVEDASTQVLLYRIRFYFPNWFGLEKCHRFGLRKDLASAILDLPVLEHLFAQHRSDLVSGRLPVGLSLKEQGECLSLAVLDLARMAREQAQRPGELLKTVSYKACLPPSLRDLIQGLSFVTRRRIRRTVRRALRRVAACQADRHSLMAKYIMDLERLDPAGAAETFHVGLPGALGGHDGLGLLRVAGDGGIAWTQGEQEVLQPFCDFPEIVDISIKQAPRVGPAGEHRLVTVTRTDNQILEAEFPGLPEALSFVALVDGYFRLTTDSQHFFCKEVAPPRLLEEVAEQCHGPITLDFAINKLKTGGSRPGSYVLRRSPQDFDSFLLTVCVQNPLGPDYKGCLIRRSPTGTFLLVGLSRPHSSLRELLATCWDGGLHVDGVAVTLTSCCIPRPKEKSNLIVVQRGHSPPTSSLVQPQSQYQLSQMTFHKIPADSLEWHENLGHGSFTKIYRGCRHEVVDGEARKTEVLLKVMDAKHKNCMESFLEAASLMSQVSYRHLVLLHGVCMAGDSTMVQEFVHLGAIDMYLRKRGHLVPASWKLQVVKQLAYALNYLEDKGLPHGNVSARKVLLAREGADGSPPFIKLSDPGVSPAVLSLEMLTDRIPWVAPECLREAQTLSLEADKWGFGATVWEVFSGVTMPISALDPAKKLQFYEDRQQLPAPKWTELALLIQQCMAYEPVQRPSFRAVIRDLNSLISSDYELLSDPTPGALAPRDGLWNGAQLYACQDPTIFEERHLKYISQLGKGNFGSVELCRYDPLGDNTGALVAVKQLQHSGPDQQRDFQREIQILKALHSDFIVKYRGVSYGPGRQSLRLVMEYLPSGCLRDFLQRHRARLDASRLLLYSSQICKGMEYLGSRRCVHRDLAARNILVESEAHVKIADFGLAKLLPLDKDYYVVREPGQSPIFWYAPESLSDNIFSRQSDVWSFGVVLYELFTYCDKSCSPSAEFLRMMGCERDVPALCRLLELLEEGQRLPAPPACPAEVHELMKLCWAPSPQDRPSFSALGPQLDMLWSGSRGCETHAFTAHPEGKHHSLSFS
Chain of JAK3/JAK1 (P23458 whole entry): as the sequence (P23458 whole entry, the tested form may be a part) above
Chain of Tyrosine-protein kinase JAK2 (O60674 whole entry, the tested form may be a part): as the sequence (O60674 whole entry, the tested form may be a part) above
Chain of JAK2/TYK2 (O60674 whole entry): as the sequence (O60674 whole entry, the tested form may be a part) above
Chain of JAK2/TYK2 (P29597 whole entry): as the sequence (P29597 whole entry, the tested form may be a part) above

AUC(0-t) [1]: 7.8 µM·h
IC50 [2]: 0.49 nM
IC50 [3]: > 50000 nM
IC50 [4]: > 2000 nM
IC50 [5]: > 50000 nM
IC50 [6]: 110 nM
IC50 [7]: 53 nM
IC50 [8]: > 12500 nM
IC50 [9]: > 12500 nM
IC50 [10]: 160 nM
Papp A→B [11]: 5.8 ×10⁻⁶ cm/s
efflux ratio [12]: 9.3
remaining at 10 min [13]: 85%
remaining at 10 min [14]: 91%
remaining at 10 min [15]: 81%
IC50 [16]: 600 nM
concentration at 0.05 h [17]: 2800 nM
concentration at 0.5 h [18]: 2400 nM
concentration at 1 h [19]: 1500 nM
concentration at 3 h [20]: 470 nM
concentration at 5 h [21]: 270 nM
concentration at 7 h [22]: 47 nM
AUC(0-t) [23]: 5 µM·h
clearance [24]: 25 mL/min/kg
Vd [25]: 2.7 L/kg
half-life [26]: 72 min
concentration at 0.05 h [27]: 750 nM
concentration at 0.5 h [28]: 1400 nM
concentration at 1 h [29]: 1400 nM
concentration at 3 h [30]: 1300 nM
concentration at 5 h [31]: 1300 nM
concentration at 7 h [32]: 260 nM
half-life [33]: 69 min
half-life [34]: 44 min
half-life [35]: 35 min
half-life [36]: 6 min
half-life [37]: 16 min
Cmax [38]: 1440 nM
AUC(0-t) at 7 h [39]: 7.83 µM·h
Cmax [40]: 20200 nM
fraction unbound [41]: 0.13
Cmax [42]: 4.9 nM
Cmax [43]: 4.9 nM
Cmax [44]: 4.9 nM
Cmax [45]: 4.9 nM
Cmax [46]: 4.9 nM
Cmax [47]: 4.9 nM
Cmax [48]: 4.9 nM
Cmax [49]: 4.9 nM
Cmax [50]: 4.9 nM
Cmax [51]: 4.9 nM
Cmax [52]: 4.9 nM
Cmax [53]: 4.9 nM
Compound: [2H]C([2H])([2H])NC(=O)c1cnc(Nc2ccc(F)cn2)cc1Nc1ccccc1S(C)(=O)=O

Compound: CNC(=O)c1nnc(Nc2ccccn2)cc1Nc1ccccc1S(C)(=O)=O
inhibition [54]: Dose-dependent effect
Activity [55]: Active
inhibition [56]: Dose-dependent effect
Activity [57]: Active
Activity [58]: Active
